Drawing on ChEMBL document CHEMBL6182885, “Discovery, Biological Activity, and Biosynthesis of Pinocicolin A, an Antibiotic Isocyanide Metabolite Produced by Penicillium pinophilum” (J Nat Prod, 2025), this text covers MIC and EC50 for three compounds.

By EC50 is commonly meant the concentration that produces a half-maximal response.

Assay [1] concerns Jonesia denitrificans. Nature of the assay: Antibacterial activity against Listeria denitrificans NBRC15587 incubated overnight by disc diffusion assay. In kind it is functional. (Agar diffusion results depend on both activity and mobility in agar.)
Assay [2] can be described thus: Metal chelating activity assessed as CAS-Cu complex formation in presence of CAS/CuCl2 by UV-Vis spectrophotometric analysis.
The subject of assay [3] is Staphylococcus aureus. Nature of the assay: Antibacterial activity against Staphylococcus aureus NBRC13276 incubated overnight by disc diffusion assay. It is filed as functional.
For assay [4], the system named is Pseudomonas aeruginosa. Nature of the assay: Antibacterial activity against Pseudomonas aeruginosa NBRC12689 incubated overnight by disc diffusion assay. In kind it is functional.
For assay [5], the system named is Brevibacillus choshinensis. Briefly: Antibacterial activity against Brevibacillus SP3 incubated overnight by disc diffusion assay. In kind it is functional.
Assay [6] deals with Escherichia coli. Briefly: Antibacterial activity against Escherichia coli NEB10beta incubated overnight by disc diffusion assay. In kind it is functional.

Take `[C-]#[N+][C@H](C(=O)OC[C@@H](O)[C@@H](O)[C@H](O)[C@H](O)COC(=O)[C@@H]([N+]#[C-])C(C)C)C(C)C`: the MIC in assay [1] is 5 µg; in assay [3] it was 5 µg; in assay [4] it was more than 100 µg; in assay [5], 5 µg; in assay [6], more than 100 µg. In addition, in assay [2], the EC50 amounted to 8 µM.

`CC(C)[C@H](NC=O)C(=O)OC[C@@H](O)[C@@H](O)[C@H](O)[C@H](O)COC(=O)[C@@H](NC=O)C(C)C`: the MIC in assay [1], in assay [3], in assay [4], in assay [5] and in assay [6] was more than 100 µg each time.

As for `[C-]#[N+][C@H](C(=O)OC[C@@H](O)[C@@H](O)[C@H](O)[C@H](O)COC(=O)[C@@H](NC=O)C(C)C)C(C)C`, the MIC in assay [1], in assay [3], in assay [4], in assay [5] and in assay [6] was more than 100 µg in each case. Also, the EC50 in assay [2] is 26.9 µM.
